Assay results published in patent US20070244155A1 (AMGEN INC., priority 2006, published 2007).

molecular target: T1, human GPR40 (Homo sapiens, UniProt O14842); assay: Cell-based aequorin assay using human GPR40; details: CHO cells transfected with GPR40 and aequorin expression vectors; aequorin luminescence; activation of human GPR40; read-out: Relative EC50
T1 construct: expressed in transfected cells; host or cells: CHO cells
Procedure: A cell-based aequorin assay may be employed to characterize the modulatory activity of compounds on the GPR40 signaling pathway. In an exemplary assay, CHO cells are transfected in a 15 cm plated containing 14 million cells with 5 μg of GPR40 expression vector and 5 μg of Aequorin expression vector (Euroscreen) using Lipofectamine 2000 (Invitrogen). After 17-24 hours post-transfection, cells are washed with phosphate buffered saline (PBS) and detached from the tissue culture dish with 2 mL of trypsin (0.25%(w/v)). Trypsinization is halted with 28 mL of Hanks Buffered Salt Solution containing 20 mM Hepes (H/HBSS) and 0.01% fatty acid-free bovine serum albumin (BSA) or 0.625% fatty acid-free human serum albumin (HSA). Coelantrazine is added to 1 ug/mL and the cells are incubated for 2 hours at room temperature. Cells are gently mixed every 15 minutes. Compounds are dissolved in dimethyl sulfoxide for preparation of 10 mM stock solutions. Compounds are diluted in H/HBSS containing either 0.01% BSA or 0.625% HSA. Serial dilutions of the test compounds are prepared to determine dose response. Aequorin luminescence measurements are made using an EG&G Berthold 96-well luminometer and the response is measured over a 20 second interval after cells and compounds are mixed. The area-under-curve from 2-20 seconds is plotted to determine dose response. The EC50 (effective concentration to reach 50% maximal response) is determined from the dose response plot. Table 1 includes representative data (EC50 values) obtained for exemplary compounds of the invention for the relative activation of human GPR40. […] Therefore, in some embodiments, the invention provides any of the compounds listed in Table 1 individually or as members of a group and pharmaceutically acceptable salts, esters, solvates, tautomers, stereoisomers, and/or prodrugs thereof.

T1 sequence (O14842 whole entry): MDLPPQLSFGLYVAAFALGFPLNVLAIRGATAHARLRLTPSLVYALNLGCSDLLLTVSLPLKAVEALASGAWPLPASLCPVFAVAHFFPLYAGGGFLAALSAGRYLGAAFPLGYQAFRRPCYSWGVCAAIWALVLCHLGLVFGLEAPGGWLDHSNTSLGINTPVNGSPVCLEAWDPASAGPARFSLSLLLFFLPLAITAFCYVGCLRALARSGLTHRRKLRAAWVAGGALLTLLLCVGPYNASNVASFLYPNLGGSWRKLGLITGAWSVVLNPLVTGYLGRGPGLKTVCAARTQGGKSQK

SMILES	EC50 [nM]
Cc1ccc(-c2nc(C)c(COc3ccc4c(c3)OCC[C@@H](C(=O)O)C4)s2)cc1 [Example 61, 8-((4-Methyl-2-p-tolylthiazol-5-yl)methoxy)-2,3,4,5-tetrahydrobenzo[b]oxepine-4-carboxylic acid]	100 to 1000
O=C(O)[C@@H]1CCOc2cc(OCc3cccc(-c4ccc(C(F)(F)F)cc4)c3)ccc2C1 [Example 63]	1000 to 10000
Cc1c(Cl)cccc1-c1cccc(COc2ccc3c(c2)OCC[C@@H](C(=O)O)C3)c1 [Example 64]	100 to 1000
Cc1c(Cl)cccc1-c1cccc(COc2ccc3c(c2)OCC[C@H](C(=O)O)C3)c1 [Example 65]	1000 to 10000
